In patent US9505798B2, “Steroid compounds as RORyt modulators and uses thereof” (New York University, priority 2010, dated 2016):

What was measured:
[1] = system: IL-17a production in human CD4+ T cells; assay: Human cord blood CD4+ T cells expressing murine ATP1a1, Th17 conditions; type: cell-based; conditions: murine Na+/K+-ATPase α1 expressed, 10 μM
Method: Blood samples were obtained from the New York Blood Center. Mononuclear cells were prepared from buffy coats from healthy adult donors or from cord blood, using FicollPAQUE gradients. CD4^+ T cells were magnetically selected (autoMACS, Miltenyi). Adult memory CD4+ T cell subsets were further purified as CD3^+CD4^+CD25^−CD45RO^+CCR6^+CD161^+ by cell sorting on a FACSAria (BD). Naive CD4^+ T cells were isolated from cord blood as CD3^+CD4^+CD45RA^+HLA^−DR^−CD25^−DAPI^−. Memory cells were activated with anti-CD3/CD28 coated beads (1 bead/cell) in T cell media (see above) supplemented with 100 U/mL IL-2 (Peprotech), 10 ng/mL IL-1β and 10 ng/mL IL-23 (eBioscience). Naive cells were activated with anti-CD3/CD28 beads and cultured with the same cytokines, and TGF-β (0, 0.1, 1, or, 10 ng/mL) (Peprotech), in XVIVO-20 (Lonza) media. […] Naive CD4+ T cells, cultured in XVIVO-20 media supplemented with 100 U/mL IL-2 (Peprotech), were transduced with RORαd-IRES-GFP or RORγt-IRES-GFP on day 1 and analyzed on day 6. GFP expressing cells were gated for analysis. DMSO or compounds were added 6-8 hours after the viral transduction.

DHR3 = biological target: T1, DHR3 (Drosophila melanogaster, UniProt P31396); assay: S2 cell DHR3 luciferase reporter; type: cell-based; conditions: 10 μM, FIG. 1c
T1 construct: Drosophila DHR3 (amino acids 120 to end); expressed in transfected cells
Description: (§1) The Drosophila S2 cell line was originally purchased from Invitrogen and was maintained in Schneider's medium supplemented with 10% heat-inactivated bovine fetal calf serum and antibiotics (Invitrogen). Gal4 DNA binding domain (G4 DBD) corresponding to amino acids 1 through 147 of Gal4 protein was PCR amplified to make a fusion construct with mouse RORγt (amino acids 79 to the carboxyl terminal end) lacking its DNA binding domain. The resulting chimeric gene was subcloned into the copper inducible pMT/V5-His A vector (Invitrogen). In a similar manner, Gal4 fusion constructs were prepared with mouse RORα (amino acids 142 to end) or Drosophila DHR3 (amino acids 120 to end). Coding sequences for firefly luciferase (Promega) were PCR amplified and subcloned into pUAST vector containing Gal4 binding enhancer sequences. Renilla luciferase construct under the polIII promoter was obtained from Dr. Dasgupta's laboratory (NYU medical center). In order to generate stable cell lines, cells were co-transfected with pMT-G4 DBD-RORγt, pMT-G4 DBD-RORα, pMT-G4 DBD-DHR3, or pMT-G4 DBDVP16 and pHygro plasmids (Invitrogen) and screened for resistant colonies in the presence of hygromycin (0.3 mg/mL). […]

VP16 = biological target: T2, VP16 (Human herpesvirus 1, UniProt P06492); assay: S2 cell VP16 luciferase reporter; type: cell-based, herpes simplex virus; conditions: 10 μM, FIG. 1c
T2 construct: herpes simplex virus VP16 (amino acids 413 to end); expressed in transfected cells
Description: as §1

T2 sequence (P06492 413-490): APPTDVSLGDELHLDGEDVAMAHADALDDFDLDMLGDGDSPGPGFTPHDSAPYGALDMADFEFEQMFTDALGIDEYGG
T1 sequence (P31396 120-487 limits assumed): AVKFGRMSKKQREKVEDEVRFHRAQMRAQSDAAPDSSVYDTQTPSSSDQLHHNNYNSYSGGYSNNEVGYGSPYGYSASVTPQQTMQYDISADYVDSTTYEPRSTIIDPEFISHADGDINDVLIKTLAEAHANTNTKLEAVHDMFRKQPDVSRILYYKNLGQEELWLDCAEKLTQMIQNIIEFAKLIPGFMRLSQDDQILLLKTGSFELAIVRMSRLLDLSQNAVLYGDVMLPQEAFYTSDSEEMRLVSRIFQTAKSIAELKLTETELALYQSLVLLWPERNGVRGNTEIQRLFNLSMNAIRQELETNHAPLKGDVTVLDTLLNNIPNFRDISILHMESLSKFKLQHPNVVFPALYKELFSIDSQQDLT

SMILES: C[C@H]1O[C@@H](O[C@H]2[C@@H](O)C[C@H](O[C@H]3[C@@H](O)C[C@H](O[C@H]4CC[C@@]5(C)[C@H](CC[C@@H]6[C@@H]5C[C@@H](O)[C@]5(C)[C@@H](C7=CC(=O)OC7)CC[C@]65O)C4)O[C@@H]3C)O[C@@H]2C)C[C@H](O)[C@@H]1O [Digoxin]
- IL-17a expression [1]: suppressed IL-17a production without affecting IFN-γ expression
- effect on transcriptional activity of DHR3 (DHR3): no effect
- effect on transcriptional activity of VP16 (VP16): no effect
